The nature of series [1]: Hydration of the solid under air exposure. The conditions noted are these: form B from methanol solutions evaporated in an atomizer at room temperature.
The conditions of series [2]: polymorph A versus polymorph B; as stated in EP-B-0442378; cited from earlier work.
The nature of series [3]: Hydrolytic degradation in mixtures of ketonic or alcoholic solvents and water. The series is classed as physicochemical. The settings on record: forms fosinoprilate, increases with time, higher temperature and higher water content. From the text: This hydrolytic degradation increases with time and with higher temperature and higher water content of the solvent.

`CCC(=O)O[C@@H](O[P@](=O)(CCCCc1ccccc1)CC(=O)N1C[C@H](C2CCCCC2)C[C@H]1C(=O)[O-])C(C)C.[Na+]` [form B, sodium salt of fosinopril]: the “hydration under air exposure” value in series [1] was “spontaneously hydrated under air exposure”.
Consider `CCC(=O)O[C@@H](O[P@](=O)(CCCCc1ccccc1)CC(=O)N1C[C@H](C2CCCCC2)C[C@H]1C(=O)[O-])C(C)C.[Na+]` [polymorph A, sodium salt of fosinopril], for which the “relative thermodynamic stability of polymorphs” value in series [2] is “more stable one from the thermodynamic point of view”.
As for `CCC(=O)O[C@@H](O[P@](=O)(CCCCc1ccccc1)CC(=O)N1C[C@H](C2CCCCC2)C[C@H]1C(=O)[O-])C(C)C.[Na+]` [sodium fosinopril, sodium salt of fosinopril], the “hydrolytic stability in solution” value in series [3] is “undergoes hydrolysis”.
